Like-named read-outs stand apart in the source and are kept apart here.
Experiments:
human H3 receptor = biological target: T1, human H3 receptor (Homo sapiens, UniProt Q9Y5N1); experiment: Human H3 radioligand binding ([3H]-N-alpha-methylhistamine, SPA)
T1 construct: expressed in transfected cells
In short: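 SPA competition binding on membranes from CHO cells stably expressing human H3 receptor (10 μg protein/well) with ~1 nM [3H]-N-alpha-methylhistamine and compound at 0.01 nM-30 μM. Incubation 4 h at room temperature in 50 mM Tris-HCl pH 7.4, 5 mM MgCl2, 0.1% BSA; non-specific binding defined with 10 μM clobenpropit.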

[1] = biological target: T2, rat histamine H3 receptor (Rattus norvegicus, UniProt Q9QYN8); experiment: Rat H3 radioligand binding ([3H]-N-alpha-methylhistamine, SPA)
T2 construct: encoding the entire 445-amino-acid rat histamine H3 receptor; expressed in transfected cells; membrane preparation
T2 sequence (Q9QYN8 whole entry): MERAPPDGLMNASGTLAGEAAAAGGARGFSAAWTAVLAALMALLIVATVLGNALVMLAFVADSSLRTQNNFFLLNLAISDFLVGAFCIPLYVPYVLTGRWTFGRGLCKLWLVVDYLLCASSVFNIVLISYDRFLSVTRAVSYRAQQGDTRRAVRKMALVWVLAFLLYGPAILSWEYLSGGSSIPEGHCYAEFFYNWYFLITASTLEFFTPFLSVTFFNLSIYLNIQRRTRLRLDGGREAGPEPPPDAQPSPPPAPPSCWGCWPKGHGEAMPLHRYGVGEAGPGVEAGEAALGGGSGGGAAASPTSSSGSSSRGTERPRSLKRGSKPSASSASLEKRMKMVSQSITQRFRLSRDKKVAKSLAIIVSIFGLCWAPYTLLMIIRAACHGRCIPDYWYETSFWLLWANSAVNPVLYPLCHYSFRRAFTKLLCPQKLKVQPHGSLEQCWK
In short: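 Membranes from CHO-A3 cells stably expressing full-length rat H3 receptor (10 μg protein/well) incubated 4 h at room temperature, protected from light, with ~1 nM [3H]-N-alpha-methylhistamine and compound (0.01 nM-30 μM) in 50 mM Tris HCl pH 7.4, 5 mM MgCl2, 0.1% BSA. Binding read by SPA; 10 μM clobenpropit defined non-specific binding.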

[2] = Table A, human H3 binding, read-out: Human Ki
[3] = Table A, rat H3 binding, read-out: Rat Ki
[4] = Human H3 binding, Table B, Examples 136-362, read-out: hum H3 binding Ki
[5] = Rat H3 binding, Table B, Examples 136-362, read-out: rat H3 binding Ki

T1 sequence (Q9Y5N1 whole entry): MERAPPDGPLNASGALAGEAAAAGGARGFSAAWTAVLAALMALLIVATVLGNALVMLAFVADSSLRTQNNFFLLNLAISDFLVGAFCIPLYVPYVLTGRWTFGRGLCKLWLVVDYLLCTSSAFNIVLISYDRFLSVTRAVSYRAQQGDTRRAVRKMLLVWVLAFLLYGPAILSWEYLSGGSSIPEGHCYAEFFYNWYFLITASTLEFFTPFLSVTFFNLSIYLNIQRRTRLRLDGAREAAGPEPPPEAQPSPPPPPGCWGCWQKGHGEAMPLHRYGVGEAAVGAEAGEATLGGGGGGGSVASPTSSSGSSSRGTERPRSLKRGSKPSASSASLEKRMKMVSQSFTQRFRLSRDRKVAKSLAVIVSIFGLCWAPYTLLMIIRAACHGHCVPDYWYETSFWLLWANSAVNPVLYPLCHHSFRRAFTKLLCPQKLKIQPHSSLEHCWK

Row | Ki (human H3 receptor; [2]) [nM] | melting point [°C] | Ki [1, 3] [nM] | Ki (human H3 receptor; [4]) [nM] | Ki [1, 5] [nM] | SMILES
1 | < 200 | 185 to 187 | < 200 |  |  | O=C(NCCO)c1ccc(-c2ccc3c(c2)COC2(CCN(C4CCC4)CC2)O3)cc1 [Example 50]
2 | < 200 | 221.7 | < 200 |  |  | O=C(c1cccc(-c2ccc3c(c2)COC2(CCN(C4CCC4)CC2)O3)c1)N1CCCC1 [Example 57]
3 | < 200 | 109.3 | < 200 |  |  | NC(=O)c1cccc(-c2ccc3c(c2)COC2(CCN(C4CCC4)CC2)O3)c1 [Example 58]
4 | < 200 | 239.2 | < 200 |  |  | CCOC(=O)c1cncc(-c2ccc3c(c2)COC2(CCN(C4CCC4)CC2)O3)c1 [Example 59]
5 | < 200 | 165 to 166 | < 200 |  |  | c1nc(-c2ccc3c(c2)COC2(CCN(C4CCC4)CC2)O3)cs1 [Example 66]
6 | < 200 | 184 to 186 | < 200 |  |  | O=C(NC[C@H]1CCCO1)c1ccc(-c2ccc3c(c2)COC2(CCN(C4CCC4)CC2)O3)cc1 [Example 67]
7 | < 200 | 184 to 186 | < 200 |  |  | O=C(c1ccc(-c2ccc3c(c2)COC2(CCN(C4CCC4)CC2)O3)cc1)N1CC[C@H](F)C1 [Example 68]
8 | < 200 | 185 to 186 | < 200 |  |  | O=C(c1ccc(-c2ccc3c(c2)COC2(CCN(C4CCC4)CC2)O3)cc1)N1CC[C@@H](F)C1 [Example 69]
9 | < 200 | 114 to 115 | < 200 |  |  | c1cnc(-c2ccc3c(c2)COC2(CCN(C4CCC4)CC2)O3)cn1 [Example 71]
10 | < 200 | 151 to 153 | < 200 |  |  | Cc1nc(-c2ccc3c(c2)COC2(CCN(C4CCC4)CC2)O3)cs1 [Example 74]
11 | < 200 | 123 to 127 | < 200 |  |  | Cc1noc(C)c1-c1ccc2c(c1)COC1(CCN(C3CCC3)CC1)O2 [Example 76]
12 | < 200 | 165 to 168 | < 200 |  |  | O=C1OCCN1c1ccc2c(c1)COC1(CCN(C3CCC3)CC1)O2 [Example 77]
13 | < 200 | 187 to 188 | 200 to 1000 |  |  | O=C1CCCN1c1ccc2c(c1)COC1(CCN(C3CCC3)CC1)O2 [Example 78]
14 | < 200 | 180 to 181 | < 200 |  |  | CN1CCN(c2ccc3c(c2)COC2(CCN(C4CCC4)CC2)O3)C1=O [Example 82]
15 | < 200 | 100 to 110 | < 200 |  |  | CN(C)C(=O)c1cn(-c2ccc3c(c2)COC2(CCN(C4CCC4)CC2)O3)c2ccccc12 [Example 83]
16 | < 200 | 138 to 141 | < 200 |  |  | OCc1cn(-c2ccc3c(c2)COC2(CCN(C4CCC4)CC2)O3)c2ccccc12 [Example 84]
17 | < 200 | 76 to 80 | < 200 |  |  | CN(C)C(=O)c1cccc2c1ccn2-c1ccc2c(c1)COC1(CCN(C3CCC3)CC1)O2 [Example 85]
18 | < 200 | 149 to 153 | < 200 |  |  | CNC(=O)c1cn(-c2ccc3c(c2)COC2(CCN(C4CCC4)CC2)O3)cc1C [Example 86]
19 | < 200 | 133 to 135 | < 200 |  |  | Cc1cn(-c2ccc3c(c2)COC2(CCN(C4CCC4)CC2)O3)cc1CO [Example 87]
20 | < 200 | 176.8 to 177.3 | 200 to 1000 |  |  | O=C(c1ccc(-c2ccc3c(c2)OC2(CCN(C4CCC4)CC2)O3)cc1)N1CCCC1 [Example 90]
21 | > 1000 | 54 | > 1000 |  |  | CCOc1ccc(-c2ccc3c(c2)OC2(CCN(C4CCC4)CC2)OC3)cn1 [Example 95]
22 | 200 to 1000 | 61 | 200 to 1000 |  |  | O=C(c1cccc(-c2ccc3c(c2)OC2(CCN(C4CCC4)CC2)OC3)c1)N1CCOCC1 [Example 96]
23 | > 1000 | 55 | 200 to 1000 |  |  | O=C(c1ccc(-c2ccc3c(c2)OC2(CCN(C4CCC4)CC2)OC3)cc1)N1CCOCC1 [Example 97]
24 | < 200 | 186 to 188 | < 200 |  |  | O=C1OCCN1c1ccc2c(c1)CCC1(CCN(C3CCC3)CC1)O2 [Example 119]
25 | < 200 | 195 to 197 | < 200 |  |  | O=C1CCN1c1ccc2c(c1)CCC1(CCN(C3CCC3)CC1)O2 [Example 120]

Row | Ki (human H3 receptor; [2]) [nM] | melting point [°C] | Ki [1, 3] [nM] | Ki (human H3 receptor; [4]) [nM] | Ki [1, 5] [nM] | SMILES
26 | < 200 | 228 to 230 | < 200 |  |  | CN1CCN(c2ccc3c(c2)CCC2(CCN(C4CCC4)CC2)O3)C1=O [Example 121]
27 | < 200 | 55 to 60 | < 200 |  |  | N#Cc1ccc(Nc2ccc3c(c2)COC2(CCN(C4CCC4)CC2)O3)cc1 [Example 122]
28 | < 200 | 55 to 60 | < 200 |  |  | N#Cc1cccc(Nc2ccc3c(c2)COC2(CCN(C4CCC4)CC2)O3)c1 [Example 123]
29 | < 200 | 52 to 57 | < 200 |  |  | c1ccc(Nc2ccc3c(c2)COC2(CCN(C4CCC4)CC2)O3)cc1 [Example 124]
30 | < 200 | 54 to 58 | < 200 |  |  | N#Cc1ccccc1Nc1ccc2c(c1)COC1(CCN(C3CCC3)CC1)O2 [Example 125]
31 | < 200 | 159 to 161 | < 200 |  |  | c1ccc(Nc2ccc3c(c2)COC2(CCN(C4CCC4)CC2)O3)nc1 [Example 126]
32 | < 200 | 55 to 58 | < 200 |  |  | c1cnc(Nc2ccc3c(c2)COC2(CCN(C4CCC4)CC2)O3)nc1 [Example 127]
33 | < 200 | 217 to 218 | < 200 |  |  | N#Cc1cnc(Nc2ccc3c(c2)COC2(CCN(C4CCC4)CC2)O3)s1 [Example 128]
34 | < 200 | 170 to 171 | < 200 |  |  | c1cc(Nc2ccc3c(c2)COC2(CCN(C4CCC4)CC2)O3)ncn1 [Example 129]
35 | < 200 | 211 to 213 | < 200 |  |  | CNC(=O)c1ccc(Nc2ccc3c(c2)COC2(CCN(C4CCC4)CC2)O3)nc1 [Example 130]
36 | < 200 | 172 to 173 | < 200 |  |  | CNC(=O)c1ccc(-c2ccc3c(n2)COC2(CCN(C4CCC4)CC2)O3)cc1F [Example 133]
37 | < 200 | 197 to 198 | < 200 |  |  | CNC(=O)c1ccc(-c2ccc3c(c2)CC2(CCN(C4CCC4)CC2)O3)cc1 [Example 134, 1′-Cyclobutyl-spirobenzofuran-2(3H)-4′-piperidine-(5-(4-methylaminocarbamoylphenyl))]
38 | < 200 | > 25 | < 200 |  |  | CS(=O)(=O)c1ccc(-c2ccc3c(c2)CC2(CCN(C4CCC4)CC2)O3)cc1 [Example 135, 1′-Cyclobutyl-spirobenzofuran-2(3H)-4′-piperidine-(5-(4-methylsulfonylphenyl))]
39 |  | 57 to 61 |  | < 200 | < 200 | c1cnc(Nc2ccc3c(c2)COC2(CCN(C4CCC4)CC2)O3)cn1 [Example 136]
40 |  | 145 to 149 |  | < 200 | 200 to 1000 | CNC(=O)N1CCN(c2ccc3c(c2)COC2(CCN(C4CCC4)CC2)O3)C(=O)C1 [Example 137]
41 |  | 241 to 243 |  | < 200 | < 200 | Cc1ccccc1-c1ccc2c(c1)COC1(CCN(C3CCC3)CC1)O2 [Example 138]
42 |  | 120 to 122 |  | < 200 | < 200 | O=C1C[C@@H](O)CN1c1ccc2c(c1)COC1(CCN(C3CCC3)CC1)O2 [Example 139]
43 |  | 145 to 147 |  | < 200 | < 200 | O=C(NCCO)c1ccc(-c2ccc3c(c2)CCC2(CCN(C4CCC4)CC2)O3)cc1 [Example 140]
44 |  | 145 to 147 |  | < 200 | < 200 | O=C(NCCO)c1ccc(-c2cc(F)c3c(c2)COC2(CCN(C4CCC4)CC2)O3)cc1 [Example 141]
45 |  | 156 to 158 |  | < 200 | < 200 | CNC(=O)c1ccc(-c2cc(F)c3c(c2)COC2(CCN(C4CCC4)CC2)O3)cc1F [Example 142]
46 |  | 181 to 183 |  | < 200 | < 200 | c1csc(-c2ccc3c(c2)COC2(CCN(C4CCC4)CC2)O3)n1 [Example 143]
47 |  | 216 to 220 |  | < 200 | < 200 | CN(c1ccc2c(c1)COC1(CCN(C3CCC3)CC1)O2)c1ccccn1 [Example 144]
48 |  | 152 to 155 |  | < 200 | < 200 | O=C1N(CCO)CCN1c1ccc2c(c1)COC1(CCN(C3CCC3)CC1)O2 [Example 146]
49 |  | 215 to 217 |  | < 200 | < 200 | O=C(NCCO)c1ccc(-c2ccc3c(c2)CCC2(CCN(C4CCC4)CC2)O3)cc1F [Example 147]
50 |  | 178 to 181 |  | < 200 | < 200 | O=C(c1ccc(-c2ccc3c(c2)COC2(CCN(C4CCC4)CC2)O3)cc1)N1CC[C@H](O)C1 [Example 148]
